# Experimental data taken from PubChem BioAssay (NCI).
#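 Dose response: 5 concentrations. Exposure: 48 h. Format: 96-well plates. Endpoint: linear interpolation; highest concentration if not reached. GI50: concentration for 50% inhibition of growth. TGI: concentration producing complete growth inhibition.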
# Experiments:
# Assay in all cases: NCI tumour cell line growth inhibition, 48 h
# [1] = system: SF-539 CNS
# [2] = system: HOP-92 NSCLC
# [3] = system: A549 NSCLC
# [4] = system: HOP-62 NSCLC
# [5] = system: HCT-116 colon
# [6] = system: OVCAR-5 ovarian
# [7] = system: SK-OV-3 ovarian
# [8] = system: UO-31 renal
# [9] = system: HS 578T breast
# [10] = system: DU-145 prostate
# [11] = system: HT29 colon
# [12] = system: NCI-H522 lung
# [13] = system: SK-MEL-2 melanoma
# [14] = system: MDA-MB-231 breast
# [15] = system: UACC-257 melanoma
# [16] = system: CCRF-CEM leukemia
# [17] = system: COLO 205 colon
# [18] = system: SN12C renal
# [19] = system: RXF 393 renal
# [20] = system: HCT-15 colon
# [21] = system: MCF7 breast
# [22] = system: MOLT-4 leukemia
# [23] = system: HCC-2998 colon
# [24] = system: CAKI-1 renal
# [25] = system: 786-0 renal
# [26] = system: OVCAR-4 ovarian
# [27] = system: MALME-3M melanoma
# [28] = system: SW-620 colon
# [29] = system: A498 renal
# [30] = system: SF-295 CNS
# [31] = system: IGROV1 ovarian
# [32] = system: BT-549 breast
# [33] = system: SK-MEL-5 melanoma
# [34] = system: PC-3 prostate
# [35] = system: SR leukemia
# [36] = system: SNB-19 CNS
# [37] = system: OVCAR-3 ovarian
# [38] = system: ACHN renal
# [39] = system: UACC-62 melanoma
# [40] = system: NCI-H23 lung
# [41] = system: KM12 colon
# [42] = system: NCI-H226 lung
# [43] = system: SNB-75 CNS
# [44] = system: SF-268 CNS
# [45] = system: NCI-H460 lung
# [46] = system: EKVX NSCLC
# [47] = system: M14 melanoma
# [48] = system: TK-10 renal
# [49] = system: LOX IMVI melanoma
# [50] = system: RPMI-8226 leukemia
# [51] = system: MDA-MB-435
# [52] = system: HL-60(TB) leukemia
# [53] = system: T-47D breast
# [54] = system: U251 CNS
# [55] = system: OVCAR-8 ovarian
smiles,measurement,setting,value
COc1ccc(NC(=O)c2sc3nc(C)c(C(=O)/C=C/c4ccccc4)cc3c2N)cc1,GI50,[1],0.951 µM
same,TGI,[1],1.84 µM
same,GI50,[2],1.39 µM
same,TGI,[2],6.65 µM
same,GI50,[3],0.749 µM
same,TGI,[3],2.13 µM
same,GI50,[4],1.26 µM
same,TGI,[4],3.16 µM
same,GI50,[5],0.849 µM
same,TGI,[5],1.78 µM
same,GI50,[6],1.11 µM
same,TGI,[6],3.26 µM
same,GI50,[7],3.33 µM
same,TGI,[7],12.7 µM
same,GI50,[8],0.748 µM
same,TGI,[8],1.44 µM
same,GI50,[9],2.05 µM
same,TGI,[9],> 50 µM
same,GI50,[10],1.3 µM
same,TGI,[10],3.72 µM
same,GI50,[11],0.883 µM
same,TGI,[11],1.94 µM
same,GI50,[12],0.943 µM
same,TGI,[12],2.42 µM
same,GI50,[13],3.78 µM
same,TGI,[13],17.5 µM
same,GI50,[14],1.76 µM
same,TGI,[14],12.6 µM
same,GI50,[15],1.19 µM
same,TGI,[15],3.56 µM
same,GI50,[16],1.26 µM
same,TGI,[16],9.94 µM
same,GI50,[17],1.43 µM
same,TGI,[17],5.18 µM
same,GI50,[18],1.1 µM
same,TGI,[18],2.85 µM
same,GI50,[19],0.82 µM
same,TGI,[19],1.62 µM
same,GI50,[20],0.892 µM
same,TGI,[20],2.07 µM
same,GI50,[21],0.815 µM
same,TGI,[21],6 µM
same,GI50,[22],1.43 µM
same,TGI,[22],> 50 µM
same,GI50,[23],0.901 µM
same,TGI,[23],1.76 µM
same,GI50,[24],0.953 µM
same,TGI,[24],1.82 µM
same,GI50,[25],0.821 µM
same,TGI,[25],1.67 µM
same,GI50,[26],4.43 µM
same,TGI,[26],> 50 µM
same,GI50,[27],1.93 µM
same,TGI,[27],21.6 µM
same,GI50,[28],0.966 µM
same,TGI,[28],2.24 µM
same,GI50,[29],0.89 µM
same,TGI,[29],3.22 µM
same,GI50,[30],1.87 µM
same,TGI,[30],9.2 µM
same,GI50,[31],0.859 µM
same,TGI,[31],2.09 µM
same,GI50,[32],0.938 µM
same,TGI,[32],2.23 µM
same,GI50,[33],2.03 µM
same,TGI,[33],7.22 µM
same,GI50,[34],1.25 µM
same,TGI,[34],3.89 µM
same,GI50,[35],1.07 µM
same,TGI,[35],4 µM
same,GI50,[36],1.3 µM
same,TGI,[36],4.02 µM
same,GI50,[37],1.09 µM
same,TGI,[37],2.73 µM
same,GI50,[38],0.888 µM
same,TGI,[38],1.74 µM
same,GI50,[39],0.934 µM
same,TGI,[39],1.96 µM
same,GI50,[40],1.57 µM
same,TGI,[40],6.09 µM
same,GI50,[41],0.897 µM
same,TGI,[41],1.87 µM
same,GI50,[42],1.11 µM
same,TGI,[42],2.87 µM
same,GI50,[43],1.22 µM
same,TGI,[43],3.53 µM
same,GI50,[44],1.57 µM
same,TGI,[44],5.93 µM
same,GI50,[45],0.931 µM
same,TGI,[45],2.08 µM
same,GI50,[46],1.62 µM
same,TGI,[46],8.85 µM
same,GI50,[47],1.75 µM
same,TGI,[47],10.3 µM
same,GI50,[48],1.35 µM
same,TGI,[48],3.59 µM
same,GI50,[49],0.863 µM
same,TGI,[49],1.61 µM
same,GI50,[50],0.86 µM
same,TGI,[50],2.74 µM
same,GI50,[51],1.04 µM
same,TGI,[51],2.96 µM
same,GI50,[52],0.971 µM
same,TGI,[52],2.5 µM
same,GI50,[53],1.25 µM
same,TGI,[53],4.37 µM
same,GI50,[54],0.889 µM
same,TGI,[54],1.68 µM
same,GI50,[55],1.42 µM
same,TGI,[55],5.22 µM
